{"source": "patent US12708655B2", "about": "“Botanicals as WNT/beta-catenin activators, molecular pathway regulators, tissue regenerators and health biomarker regulators” (Arbor Life Holdings, Ltd., priority 2020, dated 2026)", "key": {"[1]": {"test_system": "LNCaP prostate cancer cells", "conditions": "cells stimulated by DHT; cited from earlier work"}, "[2]": {"target": "T1, androgen receptor (Homo sapiens, UniProt P10275)", "T1 construct": "nuclear translocation of the androgen receptor stimulated by DHT in human dermal papilla cells; host or cells: human dermal papilla cells", "T1 sequence (P10275 1-920)": "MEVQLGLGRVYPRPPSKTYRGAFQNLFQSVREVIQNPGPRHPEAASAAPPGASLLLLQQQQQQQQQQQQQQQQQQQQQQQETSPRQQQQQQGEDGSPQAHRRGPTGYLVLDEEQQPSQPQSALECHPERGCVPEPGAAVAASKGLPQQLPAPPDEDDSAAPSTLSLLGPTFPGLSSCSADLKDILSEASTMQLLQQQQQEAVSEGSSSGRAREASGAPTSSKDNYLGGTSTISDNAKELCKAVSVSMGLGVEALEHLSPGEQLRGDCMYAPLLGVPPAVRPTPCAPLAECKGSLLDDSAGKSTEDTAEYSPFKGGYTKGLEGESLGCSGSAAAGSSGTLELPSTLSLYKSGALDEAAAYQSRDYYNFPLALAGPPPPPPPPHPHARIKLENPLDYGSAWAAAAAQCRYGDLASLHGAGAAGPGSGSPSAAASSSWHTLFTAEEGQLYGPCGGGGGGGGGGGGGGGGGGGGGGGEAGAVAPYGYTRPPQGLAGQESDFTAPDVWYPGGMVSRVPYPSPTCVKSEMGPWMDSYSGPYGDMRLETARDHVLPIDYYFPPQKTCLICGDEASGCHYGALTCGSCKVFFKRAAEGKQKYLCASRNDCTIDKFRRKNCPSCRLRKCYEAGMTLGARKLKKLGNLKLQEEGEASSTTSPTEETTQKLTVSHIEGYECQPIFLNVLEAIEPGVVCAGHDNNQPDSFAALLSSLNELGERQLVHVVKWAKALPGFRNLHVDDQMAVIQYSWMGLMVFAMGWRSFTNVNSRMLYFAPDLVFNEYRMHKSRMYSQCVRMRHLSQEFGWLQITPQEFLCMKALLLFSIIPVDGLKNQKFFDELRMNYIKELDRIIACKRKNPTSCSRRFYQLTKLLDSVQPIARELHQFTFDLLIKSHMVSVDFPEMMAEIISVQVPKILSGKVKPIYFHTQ", "conditions": "human dermal papilla cells; cited from earlier work"}, "[3]": {"test_system": "human dermal papilla cells", "conditions": "in vitro; cited from earlier work"}, "[4]": {"test_system": "androgentic alopecia and telogen effluvium in Women", "conditions": "adjusted to 24 weeks, from clinical trial or systematic review; cited from earlier work"}, "[5]": {"test_system": "androgenetic alopecia and telogen effluvium in Men", "experiment": "Comparative analysis of clinical trial results in men versus standard of care, adjusted to 24 weeks", "format": "in vivo, human"}, "[6]": {"test_system": "androgentic alopecia and telogen effluvium in Women", "experiment": "Comparative analysis of clinical trial results in women versus standard of care, adjusted to 24 weeks", "format": "in vivo, human"}, "[7]": {"test_system": "androgenetic alopecia and telogen effluvium in Men", "conditions": "adjusted to 24 weeks, cited from earlier work"}}, "data": [{"smiles": "O=C(O)[C@H]1O[C@@H](Oc2cc3oc(-c4ccccc4)cc(=O)c3c(O)c2O)[C@H](O)[C@@H](O)[C@@H]1O", "note": "[baicalin]", "values": [{"measurement": "overgrowth of LNCaP prostate cancer cells", "setting": "[1]", "result": "dose-dependently inhibited"}, {"measurement": "nuclear translocation of the androgen receptor stimulated by DHT", "setting": "[2]", "result": "inhibited"}, {"measurement": "proliferation of human dermal papilla cells", "setting": "[3]", "result": "enhanced proliferation"}]}, {"smiles": "CC(C)(C)NC(=O)[C@H]1CC[C@H]2[C@@H]3CC[C@H]4NC(=O)C=C[C@]4(C)[C@H]3CC[C@]12C", "note": "[finasteride 1 mg, finasteride]", "values": [{"measurement": "Changes in Terminal Hairs per sq.cm, difference between active and placebo groups", "setting": "[4]", "result": "−1.0", "unit": "per sq.cm"}, {"measurement": "Efficacy Factor Multiple vs 2% Minoxidil", "setting": "[5]", "result": 1.0}, {"measurement": "Efficacy Factor Multiple vs 2% Minoxidil", "setting": "[6]", "result": "−0.1"}, {"measurement": "Changes in Terminal Hairs per sq.cm vs placebo", "setting": "[7]; from clinical trial or systematic review", "result": 6.4, "unit": "per sq.cm"}, {"measurement": "Changes in Terminal hair count per sq·cm versus placebo, comparators", "setting": "[7]; systematic reviews of randomized controlled trials", "result": 6.4, "unit": "per sq·cm"}]}]}
